Source: ChEMBL document CHEMBL4138309, “Discovery of β-Adrenergic Receptors Blocker-Carbonic Anhydrase Inhibitor Hybrids for Multitargeted Antiglaucoma Therapy” (J Med Chem, 2018)
The source made the active and inactive calls. No cut-off for these calls is given here.

Tests used:
Oryctolagus cuniculus [1] = assay: Anti-glaucoma activity in hypertonic saline-induced hypertensive New Zealand albino rabbit model assessed as decrease in intraocular pressure at 1% instilled into eye vitreous measured at 60 mins post administration by pneumatonometric analysis relative to DRZ + timolol (1% + 0.25%); type: functional, organism-based
Carbonic anhydrase 9 = Carbonic anhydrase 9 (Homo sapiens, UniProt Q16790)
[2] = target: Beta-2 adrenergic receptor (Homo sapiens, UniProt P07550); assay: Displacement of [3H]-CGP12177 from human beta2 ADR expressed in HEK293T cell membrane after 90 mins by scintillation counting
Oryctolagus cuniculus [3] = assay: Anti-glaucoma activity in hypertonic saline-induced hypertensive New Zealand albino rabbit model assessed as decrease in intraocular pressure at 1% instilled into eye vitreous measured at 4 hrs post administration by pneumatonometric analysis; type: functional
[4] = target: Beta-1 adrenergic receptor (Homo sapiens, UniProt P08588); assay: biochemical
Oryctolagus cuniculus [5] = assay: Anti-glaucoma activity in hypertonic saline-induced hypertensive New Zealand albino rabbit model assessed as decrease in intraocular pressure at 0.25% instilled into eye vitreous measured at 4 hrs post administration by pneumatonometric analysis; type: functional, organism-based
Oryctolagus cuniculus [6] = assay: Anti-glaucoma activity in hypertonic saline-induced hypertensive New Zealand albino rabbit model assessed as decrease in intraocular pressure at 0.25% instilled into eye vitreous measured at 60 mins post administration by pneumatonometric analysis; type: functional
Oryctolagus cuniculus [7] = assay: Anti-glaucoma activity in hypertonic saline-induced hypertensive New Zealand albino rabbit model assessed as decrease in intraocular pressure at 0.25% instilled into eye vitreous measured at 2 hrs post administration by pneumatonometric analysis; type: functional
Oryctolagus cuniculus [8] = assay: Anti-glaucoma activity in hypertonic saline-induced hypertensive New Zealand albino rabbit model assessed as decrease in intraocular pressure at 0.25% instilled into eye vitreous along with 1% DRZ measured at 2 hrs post administration by pneumatonometric analysis; type: functional
Oryctolagus cuniculus [9] = assay: Anti-glaucoma activity in hypertonic saline-induced hypertensive New Zealand albino rabbit model assessed as decrease in intraocular pressure at 0.25% instilled into eye vitreous along with 1% DRZ measured at 4 hrs post administration by pneumatonometric analysis; type: functional, organism-based

Chain of Beta-1 adrenergic receptor (P08588 whole entry): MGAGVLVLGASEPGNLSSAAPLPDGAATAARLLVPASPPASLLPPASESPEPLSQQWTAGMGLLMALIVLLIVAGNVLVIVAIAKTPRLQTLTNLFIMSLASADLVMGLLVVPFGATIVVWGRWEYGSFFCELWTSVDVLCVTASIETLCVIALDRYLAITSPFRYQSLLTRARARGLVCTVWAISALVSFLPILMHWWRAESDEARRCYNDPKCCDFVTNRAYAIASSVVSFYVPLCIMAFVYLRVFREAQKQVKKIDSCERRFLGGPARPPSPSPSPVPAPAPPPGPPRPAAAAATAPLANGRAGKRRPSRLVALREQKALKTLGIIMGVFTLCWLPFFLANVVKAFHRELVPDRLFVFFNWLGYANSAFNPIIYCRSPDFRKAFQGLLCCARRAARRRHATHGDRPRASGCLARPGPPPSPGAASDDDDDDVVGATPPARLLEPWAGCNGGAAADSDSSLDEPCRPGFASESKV
Chain of Beta-2 adrenergic receptor (P07550 whole entry): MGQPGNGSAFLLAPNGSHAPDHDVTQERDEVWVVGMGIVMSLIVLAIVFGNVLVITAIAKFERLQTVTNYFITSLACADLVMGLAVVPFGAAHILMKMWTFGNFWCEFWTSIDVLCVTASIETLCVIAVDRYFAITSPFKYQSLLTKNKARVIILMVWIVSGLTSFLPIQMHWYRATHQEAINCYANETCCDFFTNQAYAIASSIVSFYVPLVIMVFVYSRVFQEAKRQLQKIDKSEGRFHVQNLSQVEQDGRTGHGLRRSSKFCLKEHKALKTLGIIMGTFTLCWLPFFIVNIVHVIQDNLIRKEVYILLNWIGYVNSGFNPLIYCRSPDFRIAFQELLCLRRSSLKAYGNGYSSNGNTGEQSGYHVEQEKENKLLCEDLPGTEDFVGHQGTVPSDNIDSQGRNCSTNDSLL

Row | Compound | Ki (Carbonic anhydrase 9) | Ki [2] | Ki [4] | also measured
1 | Cl.NS(=O)(=O)c1ccc(CCNC(=O)c2ccc(OCC(O)CN3CCOCC3)cc2)cc1 (stereo unspecified) | 0.007 µM | > 100 µM | > 100 µM | Activity (Oryctolagus cuniculus [1]): Active; Activity (Oryctolagus cuniculus [3]): 3.25 - 3.67 mmHg
2 | CCCNCC(O)COc1ccc(C(=O)NCCc2ccc(S(N)(=O)=O)cc2)cc1 (stereo unspecified) | 0.0074 µM | > 100 µM | > 100 µM | 
3 | CNCC(O)COc1ccc(S(=O)(=O)N2CCN(C)CC2)cc1 (stereo unspecified) | 0.127 µM | > 100 µM | > 100 µM | 
4 | CNCC(O)COc1ccc(S(=O)(=O)NCCc2ccccc2)cc1 (stereo unspecified) | 0.0592 µM | 39.8 µM | 26.9 µM | Activity (Oryctolagus cuniculus [1]): Active
5 | CNCC(O)COc1ccc(S(=O)(=O)NC(C)(C)C)cc1.Cl (stereo unspecified) | 0.0954 µM | 5.01 µM | 13.5 µM | Activity (Oryctolagus cuniculus [1]): Active; Activity (Oryctolagus cuniculus [3]): 3.25 - 3.67 mmHg
6 | NS(=O)(=O)c1ccc(CCNC(=O)c2ccc(OCC(O)CNCCO)cc2)cc1 (stereo unspecified) | 0.0058 µM | > 100 µM | > 100 µM | 
7 | CNCC(O)COc1ccc(S(=O)(=O)NCc2ccccc2)cc1 (stereo unspecified) | 0.0931 µM | > 100 µM | 79.4 µM | 
8 | CNCC(O)COc1ccc(S(=O)(=O)NCCOc2ccccc2)cc1 (stereo unspecified) | 0.0846 µM | 28.2 µM | 6.61 µM | 
9 | CCNCC(O)COc1ccc(C(=O)NCCc2ccc(S(N)(=O)=O)cc2)cc1 (stereo unspecified) | 0.0221 µM | > 100 µM | > 100 µM | 
10 | CC(C)N(CC(O)COc1ccc(C(=O)NCCc2ccc(S(N)(=O)=O)cc2)cc1)C(C)C (stereo unspecified) | 0.006 µM | > 100 µM | > 100 µM | 
11 | CCC(C)NCC(O)COc1ccc(C(=O)NCCc2ccc(S(N)(=O)=O)cc2)cc1 (stereo unspecified) | 0.0536 µM | > 100 µM | > 100 µM | 
12 | CNCC(O)COc1ccc(S(N)(=O)=O)cc1 (stereo unspecified) | 0.0234 µM | > 100 µM | > 100 µM | 
13 | NS(=O)(=O)c1ccc(CCNC(=O)c2ccc(OCC(O)CNCc3ccccc3)cc2)cc1 (stereo unspecified) | 0.0747 µM | > 100 µM | > 100 µM | 
14 | CNCC(O)COc1ccc(C(=O)NCCc2ccc(S(N)(=O)=O)cc2)cc1 (stereo unspecified) | 0.0017 µM | > 100 µM | > 100 µM | 
15 | CNCC(O)COc1ccc(S(=O)(=O)NC(C)C)cc1.Cl (stereo unspecified) | 0.0476 µM | 31.6 µM | 10.5 µM | Activity (Oryctolagus cuniculus [1]): Active; Activity (Oryctolagus cuniculus [3]): 3.25 - 3.67 mmHg
16 | CC(C)(C)NCC(O)COc1ccc(C(=O)NCCc2ccc(S(N)(=O)=O)cc2)cc1 (stereo unspecified) | 0.0831 µM | > 100 µM | > 100 µM | 
17 | CC(C)(C)NC[C@H](O)COc1nsnc1N1CCOCC1 [TIMOLOL] |  |  |  | Activity (Oryctolagus cuniculus [5]): inactive; Activity (Oryctolagus cuniculus [6]): 5.73 mmHg; Activity (Oryctolagus cuniculus [7]): 3.54 mmHg; Activity (Oryctolagus cuniculus [8]): 5 mmHg; Activity (Oryctolagus cuniculus [9]): inactive
18 | CNCC(O)COc1ccc(S(=O)(=O)NC(C)C(C)C)cc1 (stereo unspecified) | 0.108 µM | 30.2 µM | 15.5 µM | 
19 | CC(C)NCC(O)COc1ccc(C(=O)NCCc2ccc(S(N)(=O)=O)cc2)cc1 (stereo unspecified) | 0.0618 µM | > 100 µM | > 100 µM | 
